In patent publication US20220402917A1, “COMPOUND AS SMALL MOLECULE INHIBITOR PD-1/PD-L1 AND APPLICATION THEREOF” (MEDSHINE DISCOVERY INC., priority 2019, published 2022):

Tests used:
[1] = target: T1, PD-L1 in MDA-MR-231 cells (Homo sapiens, UniProt Q9NZQ7); test: Effect on expression level of PD-L1 in MDA-MR-231 cells (FACS); assay type: cell-based; settings: 24 hours incubation, FACS detection of cell surface PD-L1
T1 construct: endogenous in cells; host or cells: MDA-MB-231
Summary of the method: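 MDA-MB-231 cells (1×10^5/well) were incubated 24 h at 37 °C with 5-fold serially diluted compounds. Cells were detached with 10 mM EDTA, then stained with anti-human PD-L1 and LIVE/DEAD dye (4 °C, 30 min) and fixed. Surface PD-L1 was measured by flow cytometry.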

[2] = target: PD1/PD-L1 (Homo sapiens, UniProt Q9NZQ7); test: PD-1/PD-L1 homogeneous time-resolved fluorescence (HTRF) binding experiment; set-up: purchased BPS Biosciences; settings: HTRF (TR-FRET), PD-L1-biotin, PD1-Eu
Chain of PD1/PD-L1 (Q9NZQ7 19-239 limits assumed): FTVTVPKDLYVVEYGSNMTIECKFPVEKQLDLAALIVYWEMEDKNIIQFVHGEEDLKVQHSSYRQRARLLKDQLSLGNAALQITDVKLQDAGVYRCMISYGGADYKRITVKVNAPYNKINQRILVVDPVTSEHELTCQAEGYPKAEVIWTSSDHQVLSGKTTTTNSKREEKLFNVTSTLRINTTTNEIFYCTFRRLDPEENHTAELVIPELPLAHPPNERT
From the text: Experimental Example 1: PD-1/PD-L1 Homogenouse Time-Resolved Fluorescence (HTRF) Binding Experiment
When the PD-1 molecule as the donor is very close to the PD-L1 molecule as the acceptor, the donor molecule will transfer the energy to the receptor molecule, which in turn causes the receptor molecule to emit fluorescence. The ability of small molecules to prevent the binding of PD-L1 to PD-1 can be tested by detecting the intensity of fluorescence. A homogeneous time-resolved fluorescence (HTRF) binding experiment is used to detect the ability of the compounds of the present disclosure to inhibit the binding of PD-1/PD-L1.
PD1/PD-L1 TR-FRET detection kit was purchased from BPS Biosciences. Nivo multi-label analyzer (PerkinElmer).
PD1-Eu, Dye-labeled acceptor, PD-L1-biotin and compounds to be tested were diluted with the buffer in the kit. The compounds to be tested were subjected to 5-fold dilution to eight concentration gradients with a row gun. That is, from 40 μM to 0.5 nM, the DMSO concentration was 4%, and a double-well experiment was set up. 5 μL of inhibitor with each concentration gradient were added to the microwell plate, and 5 μL buffer containing 4% DMSO and 5 μL PD-L1-biotin (PD-L1-biotin) (60 nM) were added into well with the maximum signal (Max) and the well with the minimum signal (Min), only 5 μL of buffer was added to the well with the minimum signal (Min), and the incubation was conducted at 25° C. for 20 minutes. After the incubation was completed, 5 μL of diluted PD1-Eu (10 nM) and […] were added to each well. The reaction system was placed at 25° C. for 90 minutes. The TR-FRET signal was read by a multi-label analyzer after the reaction was completed.
Using the equation (sample−Min)/(Max−Min)×100% to convert the raw data into inhibition rate, and the IC50 value can be obtained by curve fitting with four parameters (obtained from log(inhibitor) vs. response—Variable slope mode in GraphPad Prism). Table 1 provides the inhibitory activity of the compounds of the examples of the present disclosure on PD1/PD-L1 binding

T1 sequence (Q9NZQ7 19-290): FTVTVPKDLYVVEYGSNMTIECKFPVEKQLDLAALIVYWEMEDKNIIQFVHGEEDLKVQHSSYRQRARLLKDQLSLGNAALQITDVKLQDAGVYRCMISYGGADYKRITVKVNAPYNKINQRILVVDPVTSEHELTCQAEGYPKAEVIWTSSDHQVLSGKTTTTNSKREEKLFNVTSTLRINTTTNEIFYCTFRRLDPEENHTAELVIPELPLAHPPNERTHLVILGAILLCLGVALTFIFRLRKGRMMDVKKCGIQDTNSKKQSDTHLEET

IC50 [1]: 5.73 nM
IC50 [2]: 7.14 nM
Structure (SMILES): COc1nc(-c2cccc(-c3cccc(NC(=O)c4cc(C)c5c(n4)CN(CCO)CC5)c3Cl)c2Cl)cnc1CN1CC(O)C1 [Compound 21]
